Laboratory results reported in patent publication US20080312336A1, “Preventive and/or Therapeutic Agent for Diabetic Vascular Disorder and Respiratory Disorder” (priority 2005, published 2008).

What was measured:
[1] = tested on: tracheal smooth muscles from the STZ-induced diabetic rat model; assay: Carbachol-induced contraction of isolated tracheal smooth muscle from STZ-induced diabetic rats after four weeks of dosing; type: in vivo, SD rats; conditions: for effective dose for inducing 50% muscle contraction (ED50): ED50 of carbachol; for effective dose for inducing 50% muscle contraction (ED50) / maximum muscle contractile force (Emax): mean±SD, n=6; for maximum muscle contractile force (Emax): carbachol
Description: Eight-week-old male SD rats were divided into four groups, three of which were intraperitoneally administered with 50 mg/kg of streptozotocin (hereafter, also referred to as STZ) to induce diabetes. Of this diabetic model, two groups were used as the test substance-administered groups, and were intraperitoneally administered with 2 mg/kg or 8 mg/kg of the compound, 3-(15-hydroxypentadecyl)-2,4,4-trimethyl-2-cyclohexen-1-one (hereunder, referred to as “compound 24”) synthesized in Preparation Example 24, once daily for four weeks continuously. The diabetic model which was not administered with “compound 24” was used as the control group, and rats administered with neither STZ nor “compound 24” were used as the non-treated group.
After four weeks from the start of administration, tracheae were isolated to prepare specimens (mucosal epithelium (+) specimens). The mucosal epithelia were further removed from these specimens to form mucosal epithelium (−) specimens. These specimens were suspended in an organ bath, and the contractile response to cumulative administration of carbachol (CAS Registry No.: 51-83-2) was observed. The muscle contractile force was measured with various cumulative concentrations of carbachol within the range of 10^−8.0 to 10^−4.5 M, to obtain the maximum muscle contractile force (Emax (g/mg tissue)) and the effective dose for inducing 50% muscle contraction (ED50 (M)).

[2] = tested on: vascular smooth muscles from the STZ-induced diabetic rat model; assay: U-46619-induced contraction of isolated thoracic aorta rings from STZ-induced diabetic rats after four weeks of dosing; type: in vivo, SD rats; parameters: effective dose for inducing 50% muscle contraction (ED50): unit not given here; conditions: for effective dose for inducing 50% muscle contraction (ED50): ED50 of U-46619
Description: Eight-week-old male SD rats were divided into four groups, three of which were intraperitoneally administered with 50 mg/kg of streptozotocin (hereafter, also referred to as STZ) to induce diabetes. Of this diabetic model, two groups were used as the test substance-administered groups, and were intraperitoneally administered with 2 mg/kg or 8 mg/kg of “compound 24” synthesized in Preparation Example […] once daily for four weeks continuously. The diabetic model which was not administered with “compound 24” was used as the control group, and rats which were administered with neither STZ nor “compound 24” were used as the non-treated group.
After four weeks from the start of administration, thoracic aorta were isolated to form ring specimens (endothelium (+) specimens) of about 2 mm in length. The vascular endothelia were further removed from these specimens to form endothelium (−) specimens. These specimens were suspended in an organ bath, and the contractile response to cumulative administration of 9,11-dideoxy-9α,11α-methanoepoxy-prosta-5Z,13E-dien-1-oic acid (CAS Registry No.: 56985-40-1, hereafter also referred to as U-46619), which is a thromboxane A2 derivative, was observed. The muscle contractile force was measured with various cumulative concentrations of U-46619 within the range of 10^−9.0 to 10^−6.5 M, to obtain the maximum muscle contractile force (Emax (g/mg tissue)) and the effective dose for inducing 50% muscle contraction (ED50 (M)).

rat isolated trachea = conditions: streptozotocin-induced diabetic rats and normal rats; cited from earlier work
[3] = tested on: tracheal muscles isolated from streptozotocin-induced diabetic rats; conditions: cited from earlier work
[4] = tested on: tracheal specimens contracted with carbachol; conditions: cited from earlier work; for relaxation of specimens contracted with carbachol: carbachol 10^−6 mol/l; for response of diabetic rat specimens compared with control animals: specimens six weeks after 65 mg/kg i.v. streptozotocin
[5] = mucosal epithelium (+) specimens, 2 mg/kg i.p. once daily for four weeks
[6] = mucosal epithelium (+) specimens, 8 mg/kg i.p. once daily for four weeks
[7] = mucosal epithelium (−) specimens, 2 mg/kg i.p. once daily for four weeks
[8] = mucosal epithelium (−) specimens, 8 mg/kg i.p. once daily for four weeks

CC1=C(CCCCCCCCCCCCCCCO)C(C)(C)CCC1=O [Compound 24, 3-(15-hydroxypentadecyl)-2,4,4-trimethyl-2-cyclohexen-1-one]
effect on ED50 decrease of carbachol-induced tracheal smooth muscle contraction ([1]; 2 and 8 mg/kg, vs. control group): inhibited the ED50 decrease in a dose-dependent manner | effective dose for inducing 50% muscle contraction (ED50) [1, 5]: 12.2 ± 2.3 ×10^−8 M | effective dose for inducing 50% muscle contraction (ED50) [1, 6]: 17.2 ± 5.3 ×10^−8 M | effective dose for inducing 50% muscle contraction (ED50) [1, 7]: 11.4 ± 3.1 ×10^−8 M | effective dose for inducing 50% muscle contraction (ED50) [1, 8]: 13.3 ± 4.2 ×10^−8 M | overall effect on tracheal smooth muscle contraction ([1]; STZ-induced diabetic rats): tracheal smooth muscle contraction-improving tendency | effect on Emax increase of carbachol-induced tracheal smooth muscle contraction ([1]; both mucosal epithelium (+) and (−) specimens, 2 and 8 mg/kg, vs. control group): tended to suppress the Emax increase concentration-dependently | maximum muscle contractile force (Emax) [1, 5]: 0.303 ± 0.047 g/mg tissue | maximum muscle contractile force (Emax) [1, 6]: 0.292 ± 0.029 g/mg tissue | maximum muscle contractile force (Emax) [1, 7]: 0.307 ± 0.036 g/mg tissue | maximum muscle contractile force (Emax) [1, 8]: 0.242 ± 0.019 g/mg tissue | effect on Emax increase, endothelium (−) specimens ([2]; 2 mg/kg or 8 mg/kg, compared to the control group): significant inhibition of the Emax increase | effect on Emax increase, endothelium (+) specimens ([2]; 8 mg/kg, compared to the control group): significant inhibition of the Emax increase | effective dose for inducing 50% muscle contraction (ED50) ([2]; endothelium (+) specimens, 2 mg/kg i.p. once daily for four weeks, mean±SD, n=6): 8.077 ± 0.037 ×10^−9 | effective dose for inducing 50% muscle contraction (ED50) ([2]; endothelium (+) specimens, 8 mg/kg i.p. once daily for four weeks, mean±SD, n=6): 8.102 ± 0.055 ×10^−9 | effective dose for inducing 50% muscle contraction (ED50) ([2]; endothelium (−) specimens, 2 mg/kg i.p. once daily for four weeks, mean±SD, n=6): 8.149 ± 0.030 ×10^−9 | effective dose for inducing 50% muscle contraction (ED50) ([2]; endothelium (−) specimens, 8 mg/kg i.p. once daily for four weeks, mean±SD, n=6): 8.194 ± 0.114 ×10^−9 | overall effect on vascular smooth muscle contraction ([2]; STZ-induced diabetic rats): vascular smooth muscle contraction-inhibiting effect | effect on ED50 of U-46619 ([2]; all groups): no difference in ED50 among the groups | effect on Emax increase of U-46619-induced vascular smooth muscle contraction ([2]; both endothelium (+) and (−) specimens, 2 and 8 mg/kg, vs. control group): inhibited the Emax increase in a dose-dependent manner | maximum muscle contractile force (Emax) ([2]; endothelium (+) specimens, U-46619, 2 mg/kg i.p. once daily for four weeks, mean±SD, n=6): 0.576 ± 0.082 g/mg tissue

NCCCC(=O)O [GABA, γ-aminobutyric acid]
effect on tracheal contraction induced by electrical stimulation (rat isolated trachea): inhibited

COC(=O)[C@@H](N)CCCNC(=N)N[N+](=O)[O-] [L-NAME, NG-nitro-L-arginine-methylester]
effect on electrical stimulation-induced contraction ([3]; normal rats and diabetic rats): enhanced the response in normal rats, but not in diabetic rats | effect on acetylcholine-induced contraction ([3]; tracheal muscles from streptozotocin-induced diabetic rats): not affected

O=C1C=C(CCCCCCCCCCCO)CCC1 [Preparation Example 2, 3-(11-hydroxyundecyl)-2-cyclohexen-1-one]
melting point: 34 to 35 °C

O=C1C=C(CCCCCCCCCCCCO)CCC1 [Preparation Example 3, 3-(12-hydroxydodecyl)-2-cyclohexen-1-one]
melting point: 35 to 36 °C

O=C1C=C(CCCCCCCCCCCCCO)CCC1 [Preparation Example 4, 3-(13-hydroxytridecyl)-2-cyclohexen-1-one]
melting point: 42 to 43 °C

O=C1C=C(CCCCCCCCCCCCCCO)CCC1 [Preparation Example 5, 3-(14-hydroxytetradecyl)-2-cyclohexen-1-one]
melting point: 44 to 45 °C

Nc1cc(-c2ccncc2)c[nH]c1=O [aminone]
relaxation of specimens contracted with carbachol [4]: concentration-dependent relaxation | response of diabetic rat specimens compared with control animals [4]: higher response

COc1ccc(C2CNC(=O)C2)cc1OC1CCCC1 (centres unmarked) [rolipram]
relaxation of specimens contracted with carbachol [4]: concentration-dependent relaxation | concentration at which the effect was observed ([4]; control animal specimens): observed at the lowest concentration | response of diabetic rat specimens compared with control animals [4]: no significant difference

Cn1c(=O)c2[nH]cnc2n(C)c1=O [theophylline]
relaxation of specimens contracted with carbachol [4]: concentration-dependent relaxation | response of diabetic rat specimens compared with control animals [4]: no significant difference
